# Test results reported in US20250163104A1, “MACROCYCLIC IMMUNOMODULATORS” (priority 2021, published 2025).
# *1 amine or outer side, *2 acyl side, *3 side chain or, on linkers, in order; H or OH if unused. Where a SMILES comes first, the peptide text is derived from it. Bridges are numbered along the chain shown (N, C = ends). [ ]: non-standard residue; d: D form. The star is where a group is joined. ξ: configuration not given here. Phe(4-COOH) = N[C@@H](Cc1ccc(C(=O)O)cc1)C(=O)O; Bip = N[C@@H](Cc1ccc(-c2ccccc2)cc1)C(=O)O; Phe(4-CN) = N#Cc1ccc(C[C@H](N)C(=O)O)cc1; Phe(3-Me) = Cc1cccc(C[C@H](N)C(=O)O)c1; Phe(4-F) = N[C@@H](Cc1ccc(F)cc1)C(=O)O; Phe(4-Me) = Cc1ccc(C[C@H](N)C(=O)O)cc1; γGlu = O=C(O)[C@H](CCC(=O)[*:2])N[*:1]; Val(3-OH) = CC(C)(O)[C@H](N)C(=O)O; 4Pal = N[C@@H](Cc1ccncc1)C(=O)O; Cha = N[C@@H](CC1CCCCC1)C(=O)O; Thr(3ξ) = CC(O)[C@H](N)C(=O)O; dDab = NCC[C@@H](N)C(=O)O; Carboxymethyl = O=C(O)C*; Orn = NCCC[C@H](N)C(=O)O; Pra = C#CC[C@H](N)C(=O)O; Dab = NCC[C@H](N)C(=O)O
# Target: T1, human PD-1 / PD-L1-Ig binding on Jurkat cell line over-expressing human PD-1 (Jurkat-PD-1) (Homo sapiens, UniProt Q15116)
# T1 construct: expressed in transfected cells; host or cells: Jurkat
# T1 sequence (Q15116 25-288): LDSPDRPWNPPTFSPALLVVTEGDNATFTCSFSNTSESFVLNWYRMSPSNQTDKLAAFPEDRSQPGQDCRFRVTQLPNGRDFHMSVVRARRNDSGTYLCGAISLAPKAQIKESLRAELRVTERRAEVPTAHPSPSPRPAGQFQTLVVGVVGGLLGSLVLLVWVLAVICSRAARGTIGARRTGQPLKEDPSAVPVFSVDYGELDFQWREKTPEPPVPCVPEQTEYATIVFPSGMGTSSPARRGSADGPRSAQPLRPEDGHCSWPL
# Assay: Jurkat-PD-1 Cell Binding High-Content Screening Assay (CBA)
# Assay type: cell-based
# Settings: Jurkat-PD-1 cells, PE-labeled PD-L1-Ig 20 nM final; read-out: Jurkat HPD1_PDL1 IC50
# How it was run: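 Compounds were preincubated with Jurkat-hPD-1 cells in DMEM plus 10% fetal calf serum for 2 h at 37° C. Phycoerythrin-labeled PD-L1-Ig (20 nM final) was then added for 1 hour. Cells were fixed in 4% paraformaldehyde with Hoechst 33342, and bound fluorescence was quantified by high-content imaging.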
row,SMILES,IC50 [nM]
1,Cc1ccc(C[C@@H]2NC(=O)[C@H](C(C)O)NC(=O)CSC[C@@H](C(=O)N[C@@H](CCN)C(N)=O)NC(=O)[C@H](CO)NC(=O)[C@H](C(C)(C)O)NC(=O)[C@H](CC3CCCCC3)NC(=O)[C@H](CCN)NC(=O)[C@@H](CC(C)C)NC(=O)[C@H](CCCN)NC(=O)[C@H](Cc3ccc(OCC(=O)O)cc3)NC(=O)[C@H](Cc3ccc(-c4ccccc4)cc3)NC(=O)[C@H](Cc3ccc(OCC(=O)O)cc3)NC(=O)[C@H](Cc3cccc(C)c3)NC(=O)[C@H](CC(=O)O)NC2=O)cc1 (stereo partly drawn) [Compound 2667] ({CH2CO}-[Thr(3ξ)][Phe(4-Me)]D[Phe(3-Me)]Y(Carboxymethyl)[Bip]Y(Carboxymethyl)[Orn][dL][Dab][Cha][Val(3-OH)]SC[Dab]-NH2; thioether N-14),11.4
2,Cc1ccc(C[C@@H]2NC(=O)[C@H](C(C)O)NC(=O)CSC[C@@H](C(=O)N[C@@H](CCN)C(N)=O)NC(=O)[C@H](Cc3c[nH]cn3)NC(=O)[C@H](C(C)(C)O)NC(=O)[C@H](CC3CCCCC3)NC(=O)[C@H](CCN)NC(=O)[C@@H](CC(C)C)NC(=O)[C@H](CCCN)NC(=O)[C@H](Cc3ccc(OCC(=O)O)cc3)NC(=O)[C@H](Cc3ccc(-c4ccccc4)cc3)NC(=O)[C@H](Cc3ccc(OCC(=O)O)cc3)NC(=O)[C@H](Cc3cccc(C)c3)NC(=O)[C@H](CC(=O)O)NC2=O)cc1 (stereo partly drawn) [Compound 2671] ({CH2CO}-[Thr(3ξ)][Phe(4-Me)]D[Phe(3-Me)]Y(Carboxymethyl)[Bip]Y(Carboxymethyl)[Orn][dL][Dab][Cha][Val(3-OH)]HC[Dab]-NH2; thioether N-14),9.2
3,Cc1cccc(C[C@@H]2NC(=O)[C@H](CC(=O)O)NC(=O)[C@H](Cc3ccc(F)cc3)NC(=O)[C@H](Cc3ccncc3)NC(=O)CSC[C@@H](C(=O)N[C@@H](CCN)C(N)=O)NC(=O)[C@H](Cc3c[nH]cn3)NC(=O)[C@H](C(C)(C)O)NC(=O)[C@H](CC3CCCCC3)NC(=O)[C@H](CCN)NC(=O)[C@@H](CC(C)C)NC(=O)[C@H](CCCN)NC(=O)[C@H](Cc3ccc(OCC(=O)O)cc3)NC(=O)[C@H](Cc3ccc(-c4ccccc4)cc3)NC(=O)[C@H](Cc3ccc(OCC(=O)O)cc3)NC2=O)c1 [Compound 2672] ({CH2CO}-[4Pal][Phe(4-F)]D[Phe(3-Me)]Y(Carboxymethyl)[Bip]Y(Carboxymethyl)[Orn][dL][Dab][Cha][Val(3-OH)]HC[Dab]-NH2; thioether N-14),488
4,Cc1cccc(C[C@@H]2NC(=O)[C@H](CC(=O)O)NC(=O)[C@H](Cc3ccc(C#N)cc3)NC(=O)[C@H](C(C)O)NC(=O)CSC[C@@H](C(=O)N[C@@H](CCN)C(N)=O)NC(=O)[C@H](Cc3c[nH]cn3)NC(=O)[C@H](C(C)(C)O)NC(=O)[C@H](CC3CCCCC3)NC(=O)[C@H](CCN)NC(=O)[C@@H](CC(C)C)NC(=O)[C@H](CCCN)NC(=O)[C@H](Cc3ccc(OCC(=O)O)cc3)NC(=O)[C@H](Cc3ccc(-c4ccccc4)cc3)NC(=O)[C@H](Cc3ccc(OCC(=O)O)cc3)NC2=O)c1 (stereo partly drawn) [Compound 2673] ({CH2CO}-[Thr(3ξ)][Phe(4-CN)]D[Phe(3-Me)]Y(Carboxymethyl)[Bip]Y(Carboxymethyl)[Orn][dL][Dab][Cha][Val(3-OH)]HC[Dab]-NH2; thioether N-14),5.8
5,COc1ccc(C[C@@H]2NC(=O)[C@H](C(C)O)NC(=O)CSC[C@@H](C(=O)N[C@@H](CCN)C(N)=O)NC(=O)[C@H](Cc3c[nH]cn3)NC(=O)[C@H](C(C)(C)O)NC(=O)[C@H](CC3CCCCC3)NC(=O)[C@H](CCN)NC(=O)[C@@H](CC(C)C)NC(=O)[C@H](CCCN)NC(=O)[C@H](Cc3ccc(OCC(=O)O)cc3)NC(=O)[C@H](Cc3ccc(-c4ccccc4)cc3)NC(=O)[C@H](Cc3ccc(OCC(=O)O)cc3)NC(=O)[C@H](Cc3cccc(C)c3)NC(=O)[C@H](CC(=O)O)NC2=O)cc1 (stereo partly drawn) [Compound 2674] ({CH2CO}-[Thr(3ξ)]Y(Me)D[Phe(3-Me)]Y(Carboxymethyl)[Bip]Y(Carboxymethyl)[Orn][dL][Dab][Cha][Val(3-OH)]HC[Dab]-NH2; thioether N-14),6.2
6,Cc1cccc(C[C@@H]2NC(=O)[C@H](CC(=O)O)NC(=O)[C@H](Cc3ccc(C#N)cc3)NC(=O)[C@H](Cc3ccncc3)NC(=O)CSC[C@@H](C(=O)N[C@@H](CCN)C(N)=O)NC(=O)[C@H](Cc3c[nH]cn3)NC(=O)[C@H](C(C)(C)O)NC(=O)[C@H](CC3CCCCC3)NC(=O)[C@H](CCN)NC(=O)[C@@H](CC(C)C)NC(=O)[C@H](CCCN)NC(=O)[C@H](Cc3ccc(OCC(=O)O)cc3)NC(=O)[C@H](Cc3ccc(-c4ccccc4)cc3)NC(=O)[C@H](Cc3ccc(OCC(=O)O)cc3)NC2=O)c1 [Compound 2675] ({CH2CO}-[4Pal][Phe(4-CN)]D[Phe(3-Me)]Y(Carboxymethyl)[Bip]Y(Carboxymethyl)[Orn][dL][Dab][Cha][Val(3-OH)]HC[Dab]-NH2; thioether N-14),795
7,Cc1cccc(C[C@@H]2NC(=O)[C@H](CC(=O)O)NC(=O)[C@H](Cc3ccc(OCC(=O)O)cc3)NC(=O)[C@H](Cc3ccc(F)cc3)NC(=O)CSC[C@@H](C(=O)N[C@H](CCN)C(N)=O)NC(=O)[C@H](CCC(=O)O)NC(=O)[C@H](C(C)(C)O)NC(=O)[C@H](CC3CCCCC3)NC(=O)[C@H](CCN)NC(=O)[C@@H](CC(C)C)NC(=O)[C@H](CCCN)NC(=O)[C@H](Cc3ccc(OCC(=O)O)cc3)NC(=O)[C@H](Cc3ccc(-c4ccccc4)cc3)NC(=O)[C@H](Cc3ccc(OCC(=O)O)cc3)NC2=O)c1 [Compound 2676] ({CH2CO}-[Phe(4-F)]Y(Carboxymethyl)D[Phe(3-Me)]Y(Carboxymethyl)[Bip]Y(Carboxymethyl)[Orn][dL][Dab][Cha][Val(3-OH)]EC[dDab]-NH2; thioether N-14),8.5
8,Cc1cccc(C[C@@H]2NC(=O)[C@H](CC(=O)O)NC(=O)[C@H](Cc3ccc(OCC(=O)O)cc3)NC(=O)[C@H](Cc3ccncc3)NC(=O)CSC[C@@H](C(=O)N[C@@H](CCN)C(N)=O)NC(=O)[C@H](CCC(=O)O)NC(=O)[C@H](C(C)(C)O)NC(=O)[C@H](CC3CCCCC3)NC(=O)[C@H](CCN)NC(=O)[C@@H](CC(C)C)NC(=O)[C@H](CCCN)NC(=O)[C@H](Cc3ccc(C(=O)O)cc3)NC(=O)[C@H](Cc3ccc(-c4ccccc4)cc3)NC(=O)[C@H](Cc3ccc(C(=O)O)cc3)NC2=O)c1 [Compound 2677] ({CH2CO}-[4Pal]Y(Carboxymethyl)D[Phe(3-Me)][Phe(4-COOH)][Bip][Phe(4-COOH)][Orn][dL][Dab][Cha][Val(3-OH)]EC[Dab]-NH2; thioether N-14),6
9,C#CC[C@H](NC(=O)CC[C@H](NC(=O)[C@H](CCN)NC(=O)[C@@H]1CSCC(=O)N[C@@H](CCN)C(=O)N[C@@H](Cc2ccc(OCC(=O)O)cc2)C(=O)N[C@@H](CC(=O)O)C(=O)N[C@@H](Cc2cccc(C)c2)C(=O)N[C@@H](Cc2ccc(C(=O)O)cc2)C(=O)N[C@@H](Cc2ccc(-c3ccccc3)cc2)C(=O)N[C@@H](Cc2ccc(C(=O)O)cc2)C(=O)N[C@@H](CCCN)C(=O)N[C@H](CC(C)C)C(=O)N[C@@H](Cc2cnc[nH]2)C(=O)N[C@@H](CC2CCCCC2)C(=O)N[C@@H](C(C)(C)O)C(=O)N[C@@H](CCC(=O)O)C(=O)N1)C(=O)O)C(N)=O [Compound 2678] ({CH2CO}-[Dab]Y(Carboxymethyl)D[Phe(3-Me)][Phe(4-COOH)][Bip][Phe(4-COOH)][Orn][dL]H[Cha][Val(3-OH)]EC[Dab][γGlu][Pra]-NH2; thioether N-14),12.2
10,Cc1cccc(C[C@@H]2NC(=O)[C@H](CC(=O)O)NC(=O)[C@H](Cc3ccc(C(=O)O)cc3)NC(=O)[C@H](C(C)O)NC(=O)CSC[C@@H](C(=O)N[C@@H](CCN)C(N)=O)NC(=O)[C@H](Cc3cnc[nH]3)NC(=O)[C@H](C(C)(C)O)NC(=O)[C@H](CC3CCCCC3)NC(=O)[C@H](CCN)NC(=O)[C@@H](CC(C)C)NC(=O)[C@H](CCCN)NC(=O)[C@H](Cc3ccc(OCC(=O)O)cc3)NC(=O)[C@H](Cc3ccc(-c4ccccc4)cc3)NC(=O)[C@H](Cc3ccc(OCC(=O)O)cc3)NC2=O)c1 (stereo partly drawn) [Compound 2683] ({CH2CO}-[Thr(3ξ)][Phe(4-COOH)]D[Phe(3-Me)]Y(Carboxymethyl)[Bip]Y(Carboxymethyl)[Orn][dL][Dab][Cha][Val(3-OH)]HC[Dab]-NH2; thioether N-14),1.9
11,Cc1cccc(C[C@@H]2NC(=O)[C@H](CC(=O)O)NC(=O)[C@H](Cc3ccc(C(=O)O)cc3)NC(=O)[C@H](Cc3ccc(F)cc3)NC(=O)CSC[C@@H](C(=O)N[C@@H](CCN)C(N)=O)NC(=O)[C@H](Cc3cnc[nH]3)NC(=O)[C@H](C(C)(C)O)NC(=O)[C@H](CC3CCCCC3)NC(=O)[C@H](CCN)NC(=O)[C@@H](CC(C)C)NC(=O)[C@H](CCCN)NC(=O)[C@H](Cc3ccc(OCC(=O)O)cc3)NC(=O)[C@H](Cc3ccc(-c4ccccc4)cc3)NC(=O)[C@H](Cc3ccc(OCC(=O)O)cc3)NC2=O)c1 [Compound 2684] ({CH2CO}-[Phe(4-F)][Phe(4-COOH)]D[Phe(3-Me)]Y(Carboxymethyl)[Bip]Y(Carboxymethyl)[Orn][dL][Dab][Cha][Val(3-OH)]HC[Dab]-NH2; thioether N-14),1.9
12,Cc1cccc(C[C@@H]2NC(=O)[C@H](CC(=O)O)NC(=O)[C@H](Cc3ccc(F)cc3)NC(=O)[C@H](C(C)O)NC(=O)CSC[C@@H](C(=O)N[C@@H](CCN)C(N)=O)NC(=O)[C@H](C(C)O)NC(=O)[C@H](C(C)(C)O)NC(=O)[C@H](CC3CCCCC3)NC(=O)[C@H](CCN)NC(=O)[C@@H](CC(C)C)NC(=O)[C@H](CCCN)NC(=O)[C@H](Cc3ccc(C(=O)O)cc3)NC(=O)[C@H](Cc3ccc(-c4ccccc4)cc3)NC(=O)[C@H](Cc3ccc(C(=O)O)cc3)NC2=O)c1 (stereo partly drawn) [Compound 2685] ({CH2CO}-[Thr(3ξ)][Phe(4-F)]D[Phe(3-Me)][Phe(4-COOH)][Bip][Phe(4-COOH)][Orn][dL][Dab][Cha][Val(3-OH)][Thr(3ξ)]C[Dab]-NH2; thioether N-14),6
